# Reference: patent EP0070049A1, “Derivative of acetylsalicylic acid having an analgetic, antipyretic, antiphlogistic and bronchosecretolytic activity” (UNIONE CHIMICA MEDICAMENTI- DIFME-S.p.A., priority 1981, dated 1983)
# Key:
# [1] = system: convulsions abdominales (writhings) induites dans le souris par une injection intrapéritonéale d'acide acétique; test: Acetic acid writhing test (analgesic activity, Koster and Anderson); type: in vivo; details: for Frequence writhings: souris, 60 minutes après l'administration, ± déviation standard
# Text: L'activité analgésique de l'acétylsalicylate de 2(o-méthoxy-phénoxy)éthanol a été évaluée en comparaison avec celle de l'acide acétylsalicylique sur la base de la fréquence des convulsions abdominales (writhings) induites dans le souris par une injection intrapéritonéale d'acide acétique, suivant la technique décrite par Koster et Anderson (Fed. Proc., volume 18, page 412, 1959). Les résultats de l'élaboration statistique des épreuves sont indiqués dans le suivant Tableau 3, dans lequel la fréquence des convulsions est indiquée comme nombre de convulsions par minute ± la déviation standard, et a été mesurée 60 minutes après l'administration; pour les autres valeurs est valable ce qui a été spécifié en relation avec le Tableau 1.
# [2] = system: oedème induit par carraghénine injectée dans la patte de rats; test: Carrageenan-induced rat paw oedema (antiphlogistic activity, Winter et al); type: in vivo; details: voie orale; for Volume de l'oedème - ml ± d.s. après 3 heures: 3 heures après le traitement oedémigène; for Volume de l'oedème - ml ± d.s. après 6 heures: 6 heures après le traitement oedémigène
# Text: L'activité antiphlogistique de l'acétylsalicylate de 2(o-méthoxy-phénoxy) éthanol a été évaluée en comparaison avec celle de l'acide acétylsalicylique sur la base de la variation de volume de l'oedème induit par carraghénine injectée dans la patte de rats, suivant la technique décrite par Winter et al (Proc. Soc. Exp. Biol. Med., volume III, page 544, 1962). Les résultats de l'élaboration des épreuves sont indiqués dans le Tableau 1, dans lequel le volume de l'oedème est indiqué en millilitres z la déviation standard, et il a été mesuré 3, 4,5 et 6 heures après le traitement oedémigène; la dose de substance est indiquée en milligrammes de substance administrée par voie orale pour chaque kilogramme de poids corporel des rats; les valeurs marquées par * correspondent à une probabilité d'erreur p < 0,05, les valeurs marquées correspondent à une probabilité d'erreur p < 0,01, calculées sur les valeurs des contrôles, et les valeurs indiquées entre parenthèses indiquent l'inhibition en pour-cent calculée par rapport aux contrôles.
# rats = details: rat, in vivo, 500 mg/kg
# Text: La toxicité subaiguë de l'acétylsalicylate de 2(o-méthoxy-phénoxy)éthanol a été évaluée en comparaison avec celle de l'acide acétylsalicylique en administrant à des rats, par voie orale, des doses journalières de substance pour 10 jours, et en relevant le nombre des animaux morts, la diminution moyenne de poids des animaux traités et l'incidence des lésions gastriques relevées, distinguées en simple hyperémie, hyperémie accompagnée par hémorragie et hémorragie accompagnée par ulcérations. Les résultats des épreuves sont indiqués dans le Tableau 5, dans lequel la dose de substance administrée est exprimée en mg de substance par kg de poids corporel et par jour, et la diminution moyenne de poids corporel à la fin du traitement est exprimée en grammes.
# [3] = system: température corporelle, augmentée par l'injection intraveineuse de nucléinate de sodium dans le lapin; test: Antipyretic activity: rise in body temperature induced by intravenous sodium nucleinate; type: in vivo; details: for Augmentation temperature corporelle - °C ± d.s. après 1 heure: 1 heure après l'administration; for Augmentation temperature corporelle - °C ± d.s. après 2 heures: 2 heures après l'administration; for Augmentation temperature corporelle - °C ± d.s. après 3 heures: 3 heures après l'administration; for Augmentation temperature corporelle - °C ± d.s. après 4 heures: 4 heures après l'administration
# Text: L'activité antipyrétique de l'acétylsalicylate de 2(o-méthoxy-phénoxy)éthanol a été evaluée en comparaison avec celle de l'acide acétylsalicylique suivant la méthode, universellement employée, de la mesure de la variation de la température corporelle, augmentée par 1' injection intraveineuse de nucléinate de sodium dans le lapin. Les résultats de l'élaboration statistique des épreuves sont indiqués dans le suivant Tableau 2, dans lequel l'augmentation de la température corporelle est indiquée en °C ± la déviation standard, et a été mesurée 1, 2, 3 et 4 heures après l'administration; pour les autres valeurs est valable ce qui a été spécifié en relation avec le Tableau 1.
# [4] = system: arbre bronchial de rats Wistar; test: Bronchosecretolytic activity: pulmonary excretion of fluorescein (Mawatari); type: in vivo; details: rats Wistar, 101,8 mg/Kg
# Text: L'activité bronchosécrétolytique de l'acétylsalicylate de 2(o-méthoxy-phénoxy)éthanol a été évaluée en comparaison avec celle du gaïacoléthanol, sur la base de la mesure des variations de la quantité d'indicateur (fluorescéine) trouvée dans l'arbre bronchial de rats Wistar, recueillie au moyen d'un système de lavage standardisé, après injection parentérale de l'indicateur, et mesurée au moyen d'un spectrofluorométre, suivant la méthode décrite par H.Mawatari ("Expérimental studies on the expectorant action of several drugs", Kagoshima Daigakeu Igakeu Zasshi, volume 27, page 561, 1976). Les résultats de l'élaboration statistique des épreuves sont recueillis dans le suivant tableau 4,dans lequel l' excrétion pulmonaire de fluorescéine est exprimée en microgrammes ± la déviation standard, soit dans la quantité totale trouvée, soit dans la quantité pour-cent rapportée à 100 g de poids corporel des rats. Entre parenthèses sont indiquées les valeurs de l'augmentation pour-cent par rapport aux contrôles. Pour les autres valeurs est valable ce qui été précisé en relation au Tableau 1.
smiles,measurement,setting,value
"CC(=O)Oc1ccccc1C(=O)O [Acide acétyl-salicylique, acide acétylsalicylique, reference compound]",inhibition at 100 mg/kg,[1]; 1 h,30%
same,inhibition at 200 mg/kg,[1]; 1 h,44%
same,Frequence writhings,[1]; 100 mg/Kg,"*20,5 ± 6,7 convulsions par minute"
same,Frequence writhings,[1]; 200 mg/Kg,"**16,4 ± 5,8 convulsions par minute"
same,"inhibition en pour-cent calculée par rapport aux contrôles, après 3 heures",[2]; 100 mg/Kg,"44,0 pour-cent"
same,Volume de l'oedème - ml ± d.s. après 3 heures,[2]; 100 mg/Kg,"0,380 ± 0,21 ml"
same,"inhibition en pour-cent calculée par rapport aux contrôles, après 4,5 heures","[2]; 100 mg/Kg, 4,5 heures","35,0 pour-cent"
same,"Volume de l'oedème - ml ± d.s. après 4,5 heures","[2]; 100 mg/Kg, 4,5 heures après le traitement oedémigène","0,395 ± 0,14 ml"
same,"inhibition en pour-cent calculée par rapport aux contrôles, après 6 heures",[2]; 100 mg/Kg,"41,0 pour-cent"
same,Volume de l'oedème - ml ± d.s. après 6 heures,[2]; 100 mg/Kg,"0,285 ± 0,18 ml"
same,"inhibition en pour-cent calculée par rapport aux contrôles, après 3 heures",[2]; 200 mg/Kg,"56,5 pour-cent"
same,Volume de l'oedème - ml ± d.s. après 3 heures,[2]; 200 mg/Kg,"0,297 ± 0,17 ml"
same,"inhibition en pour-cent calculée par rapport aux contrôles, après 4,5 heures","[2]; 200 mg/Kg, 4,5 heures","39,0 pour-cent"
same,"Volume de l'oedème - ml ± d.s. après 4,5 heures","[2]; 200 mg/Kg, 4,5 heures après le traitement oedémigène","0,370 ± 0,09 ml"
same,"inhibition en pour-cent calculée par rapport aux contrôles, après 6 heures",[2]; 200 mg/Kg,"43,0 pour-cent"
same,Volume de l'oedème - ml ± d.s. après 6 heures,[2]; 200 mg/Kg,"0,275 ± 0,18 ml"
same,Lésions gastriques Hyperémie,rats,4
same,Lésions gastriques Hyperémie + hémorragie,rats,3
same,Lésions gastriques Hémorragie + ulcérations,rats,2
same,Nombre animaux morts,rats,6
same,Δ poids moyenne,rats,-30 grammes
same,"inhibition en pour-cent calculée par rapport aux contrôles, après 1 heure",[3]; 100 mg/Kg,40 pour-cent
same,Augmentation temperature corporelle - °C ± d.s. après 1 heure,[3]; 100 mg/Kg,"0,75 ± 0,16 °C"
same,"inhibition en pour-cent calculée par rapport aux contrôles, après 2 heures",[3]; 100 mg/Kg,46 pour-cent
same,Augmentation temperature corporelle - °C ± d.s. après 2 heures,[3]; 100 mg/Kg,"0,78 ± 0,17 °C"
same,"inhibition en pour-cent calculée par rapport aux contrôles, après 3 heures",[3]; 100 mg/Kg,43 pour-cent
same,Augmentation temperature corporelle - °C ± d.s. après 3 heures,[3]; 100 mg/Kg,"0,94 ± 0,12 °C"
same,"inhibition en pour-cent calculée par rapport aux contrôles, après 4 heures",[3]; 100 mg/Kg,26 pour-cent
same,Augmentation temperature corporelle - °C ± d.s. après 4 heures,[3]; 100 mg/Kg,"0,55 ± 0,1 °C"
same,"inhibition en pour-cent calculée par rapport aux contrôles, après 1 heure",[3]; 200 mg/Kg,50 pour-cent
same,Augmentation temperature corporelle - °C ± d.s. après 1 heure,[3]; 200 mg/Kg,"0,62 ± 0,13 °C"
same,"inhibition en pour-cent calculée par rapport aux contrôles, après 2 heures",[3]; 200 mg/Kg,51 pour-cent
same,Augmentation temperature corporelle - °C ± d.s. après 2 heures,[3]; 200 mg/Kg,"0,71 ± 0,18 °C"
same,"inhibition en pour-cent calculée par rapport aux contrôles, après 3 heures",[3]; 200 mg/Kg,43 pour-cent
same,Augmentation temperature corporelle - °C ± d.s. après 3 heures,[3]; 200 mg/Kg,"0,93 ± 0,16 °C"
same,"inhibition en pour-cent calculée par rapport aux contrôles, après 4 heures",[3]; 200 mg/Kg,31 pour-cent
same,Augmentation temperature corporelle - °C ± d.s. après 4 heures,[3]; 200 mg/Kg,"0,52 ± 0,07 °C"
"COc1ccccc1OCCO [Gaïacol-éthanol, gaïacoléthanol, reference compound]","augmentation pour-cent par rapport aux contrôles (excrétion pulmonaire de fluorescéine, quantité totale)",[4],"+72,2 pour-cent"
same,Excrétion pulmonaire de fluorescéine Quantité pour-cent µg/100 g,"[4]; rapportée à 100 g de poids corporel, ± déviation standard","0,202 ± 0,034 µg/100 g"
same,Excrétion pulmonaire de fluorescéine Quantité totale µg,[4]; ± déviation standard,"0,434 ± 0,064 µg"
